Experimental data as given in PubChem BioAssay AID977630 (Broad Institute, 2014).
Results filed as inconclusive are left out. Active and inactive are the calls of the source.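 The calls were made as follows: active = Normal-ribosome green reporter loss at least double humanized-ribosome red reporter loss, with overall culture growth inhibition under a set limit; inconclusive = no clear call, values can overlap the other calls; inactive = the rest.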

Assays:
[1] = test system: E. coli humanized H38 RFP strain growth, mixed culture, 24 h; assay: E. coli growth inhibition, wild-type GFP versus H38 humanized RFP strain – H38 mutant RFP vs wild-type GFP, cherry-pick, dose response (AID 977630)
[2] = test system: E. coli wild-type GFP growth, mixed culture, 24 h; assay: as above
[3] = E. coli mixed culture total OD600 growth, 24 h

SMILES	AC50 [1] [µM]	AC50 [2]	AC50 [2, 3] [µM]
Cc1cc(SCC(=O)OCC(=O)NCC2CCCO2)c(C)cc1Br (centres undefined)	> 100	> 100 µM (inactive)	
COc1cc(NC(=O)C(c2ccccc2)c2ccccc2)c(C(=O)O)cc1OC	22.3	> 100 µM (inactive)	
O=C(CCCSc1nc2ccccc2s1)NCc1ccc2c(c1)OCO2	> 100	> 100 µM (inactive)	43.8
COc1cc(OC)cc(C(=O)N[C@H](C(=O)OCC(=O)Nc2ccc(F)c(F)c2F)C(C)C)c1	> 100	> 100 µM (inactive)	
O=C(Nc1ccccc1N1CCOCC1)C1CCCCN1S(=O)(=O)c1ccccc1 (centres undefined)	49.8		> 100
COc1ccc(OC2C(=O)N(Cc3ccc4c(c3)OCO4)C2c2cccs2)cc1 (centres undefined)	11.5	> 100 µM (inactive)	
Cc1ccccc1-c1nc(CS(=O)(=O)CC(=O)N2CCCCC2)c(C)o1	> 100		45.5
CC(C)(C)S(=O)(=O)Cc1nc(-c2ccc(Cl)c(Cl)c2)cs1	> 100		> 100
CCc1cc2ccc(OC)cc2nc1SCC(=O)N1CCN(C(=O)c2ccco2)CC1	> 100	> 100 µM (inactive)	
Fc1ccccc1C1CCN(Cc2nc(COc3ccccc3)no2)C1 (centres undefined)	> 100		
Nc1ncncc1-c1ccc2ccccc2c1	> 100	> 100 µM (inactive)	
Nc1nc(=S)ss1	< 0.6	> 100 µM (inactive)	> 100
COC(=O)c1nc(-c2ccc(C)cc2)[nH]c1C(C)(C)C	> 100		
CCOC(=O)c1csc(NC(=O)CC2CCCC2)n1	51.7	> 100 µM (inactive)	
O=C(NCc1ccccc1)c1ccc(-c2cn[nH]c2)c2ccoc12	> 100	> 100 µM (inactive)	
O=C1NC(CCc2ccccc2)C(=O)N1Cc1cccc2ccccc12 (centres undefined)	50.1	> 100 µM (inactive)	51.8
COc1ccc(-c2nn(-c3ccccc3C)cc2CNCc2cccnc2)cc1F	> 100		> 100
CS(=O)(=O)c1ccc(Cl)c(NC(=O)COC(=O)c2c(Cl)cccc2Cl)c1	> 100	> 100 µM (inactive)	> 100
CSc1nnnn1-c1ccc(Cl)cc1	> 100		
COc1cc(NC(=O)c2ccc(Cl)cc2)c(OC)cc1NC(=O)CN1CCCCC1	> 100	> 100 µM (inactive)	> 100
COc1ccc(NS(=O)(=O)c2ccc(Cl)c(NC(=O)c3ccccc3F)c2)cc1	> 100	> 100 µM (inactive)	
COc1ccc(-c2cc(C(=O)O)nc3ccc4ccccc4c23)cc1OC	> 100		
CN(c1ccc(C(=O)NCc2cccs2)cc1)S(=O)(=O)c1ccccc1	> 100		
Nc1nc2ccccc2n1CCOc1ccc(F)cc1	< 0.6	> 100 µM (inactive)	
O=C1c2ccccc2NC(c2ccc(-c3cccc([N+](=O)[O-])c3)o2)N1O (centres undefined)	7.43	> 100 µM (inactive)	
CCOC(=O)[C@]12Cc3ccccc3[C@H]1N(C)C(=O)c1cc(OC)ccc12	48.7	> 100 µM (inactive)	34.2
CS(=O)(=O)N1CC2CCCN2c2ccc(C(F)(F)F)cc21 (centres undefined)	> 100	> 100 µM (inactive)	> 100

SMILES	AC50 [1] [µM]	AC50 [2]	AC50 [2, 3] [µM]
Cc1ccc([N+](=O)[O-])c(OCCn2cnc3ccccc32)c1	> 100		
CN(C(=O)COc1ccccc1C(=O)NCCOc1ccccc1)c1ccccc1	44.2	> 100 µM (inactive)	
CC(C)C[C@H]1COc2cc(Br)ccc2S(=O)(=O)N1	47	> 100 µM (inactive)	
COc1cccc(NC(=O)C2CCC(CNS(=O)(=O)c3cccc4cccnc34)CC2)c1 (centres undefined)	> 100		
COc1ccc(C2CC(c3cccs3)=Nc3ccccc3S2)cc1 (centres undefined)			> 100
O=C(Nc1ccccc1N1CCN(C(=O)c2ccccc2)CC1)c1ccc([N+](=O)[O-])o1		> 100 µM (inactive)	
COc1ccc2[nH]c3c(=O)n(CCCCC(=O)NCCC(C)C)c(=S)[nH]c3c2c1		2.42 µM	> 100
CC(C)(C)c1ccc(S(=O)(=O)NCc2ccc(C(=O)NCc3ccccn3)cc2)cc1	49.9	> 100 µM (inactive)	> 100
O=C(c1ccc(-n2cccn2)cc1)N1CCc2ccccc2C1		> 100 µM (inactive)	
Cc1ccccc1NS(=O)(=O)c1cc(C(=O)NCCC2=CCCCC2)ccc1C	> 100		> 100
O=C(CCNc1cccc(Cl)c1)c1cccs1		> 100 µM (inactive)	
COC(=O)c1sccc1NC(=O)CNC(=O)c1ccccc1			> 100
Cc1ccsc1C(=O)C1CCCN(Cc2cc(F)ccc2-n2cccn2)C1 (centres undefined)		> 100 µM (inactive)	> 100
CNC(=O)c1ccsc1NC(=O)c1ccc(S(=O)(=O)N2CCc3ccccc32)cc1			> 100
COCC#Cc1ccc2c(c1)O[C@@H](CN(C)S(=O)(=O)c1cccc(F)c1)[C@@H](C)CN([C@H](C)CO)S2(=O)=O			> 100
CCn1cc(Br)c(C(=O)Nc2ccc(C(=O)OC(C)C)cc2)n1	52	> 100 µM (inactive)	47.3
O=C(Nc1cccc(Oc2ccc3c(c2)C(=O)NC3=O)c1)c1cccs1		> 100 µM (inactive)	
CSc1ccc(CN(C)CC(=O)NC(C)c2ccccc2)cc1 (centres undefined)			> 100
Cc1ccsc1C(=O)OCC(=O)N1CCc2ccccc2C1		> 100 µM (inactive)	
Cc1ccc(NC(=O)c2ccc([N+](=O)[O-])o2)c(C)c1		> 100 µM (inactive)	
CCCc1nc2oc3c(NCCCN(C)C)ncnc3c2c2c1CCCC2		> 100 µM (inactive)	> 100
C=CCn1c(C)cc(C(=O)CSc2nnc(C3CC3)n2C2CC2)c1C		> 100 µM (inactive)	> 100
O=[N+]([O-])c1ccccc1Oc1ccc(Cl)c2cccnc12		> 100 µM (inactive)	
CCOC(=O)C(CC)Sc1cc(C)nc2ccc(OC)cc12 (centres undefined)			> 100
C=CCN(CC=C)C(=O)c1ccc2nc(Cc3ccc(OC)c(OC)c3)oc2c1		> 100 µM (inactive)	
Cc1nn2c(NCc3ccccn3)cc(C(C)C)nc2c1-c1ccccc1		> 100 µM (inactive)	
Brc1ccc(Nc2ncnc3[nH]ncc23)cc1		> 100 µM (inactive)	
